14 compounds from ChEMBL document CHEMBL5260819, “Design and synthesis of 2-phenylpyrimidine coumarin derivatives as anticancer agents” (Bioorg Med Chem Lett, 2017) can be followed below.

Active and inactive are the calls of the source. The calls are words filed in the database; no cut-off is given here.

For assay [1], the system named is KB. The assay is described as follows: Anticancer activity against human KB cells assessed as inhibition of cell growth. Type of assay: functional, cell-based.
The test system of assay [2] is CAL-27. Description: Anticancer activity against human CAL-27 cells assessed as inhibition of cell growth. The assay is classed as functional, cell-based.
The test system of assay [3] is CNE-2. Description: Anticancer activity against human CNE-2 cells assessed as inhibition of cell growth. The assay is classed as functional, cell-based.
Assay [4] deals with Telomerase reverse transcriptase (Homo sapiens, UniProt O14746). The assay is described as follows: Inhibition of telomerase activity in human CNE-2 cells. The assay is classed as cell-based.
Assay [5] relates to CNE-2. Description: Induction of apoptosis in human CNE-2 cells assessed as live cells at 0.5 uM incubated for 4 days by annexin V-FITC/PI double-staining method (reference value: 91.9%). The following applies: time 4 day. Type of assay: functional.
In assay [6] the test system is CNE-2. Description: Induction of apoptosis in human CNE-2 cells assessed as dead cells at 1 uM incubated for 4 days by annexin V-FITC/PI double-staining method (reference value: 0%). The assay is classed as functional. The following applies: time 4 day.
Assay [7] concerns CNE-2. The assay is described as follows: Induction of apoptosis in human CNE-2 cells assessed as late apoptotic cells at 0.5 uM incubated for 4 days by annexin V-FITC/PI double-staining method (reference value: 0.1%). The assay is classed as functional. As to conditions: time 4 day.
Assay [8] relates to CNE-2. Description: Induction of apoptosis in human CNE-2 cells assessed as late apoptotic cells at 1 uM incubated for 4 days by annexin V-FITC/PI double-staining method (reference value: 0.1%). Type of assay: functional. As to conditions: time 4 day.
In assay [9] the test system is CNE-2. Description: Anticancer activity against human CNE-2 cells assessed as shortening of telomer length at 0.5 uM incubated for 8 days by TRF analysis. The assay is classed as functional, cell-based. As to conditions: time 8.0 day.
Assay [10] concerns CNE-2. Description: Induction of apoptosis in human CNE-2 cells assessed as early apoptotic cells at 1 uM incubated for 4 days by annexin V-FITC/PI double-staining method (reference value: 8%). The assay is classed as functional. As to conditions: time 4 day.
Assay [11] has as its system CNE-2. The assay is described as follows: Anticancer activity against human CNE-2 cells assessed as induction of senescence by measuring shortening of telomer length at 0.5 to 1 uM incubated for 8 days by TRF analysis. The assay is classed as functional, cell-based. The following applies: dose 0.5-1 µM, time 8.0 day.
The subject of assay [12] is CNE-2. Description: Anticancer activity against human CNE-2 cells assessed as reduction in telomer length at 1 uM incubated for 8 days by TRF analysis. As to conditions: time 8 day. Type of assay: functional.
Assay [13] concerns CNE-2. The assay is described as follows: Induction of apoptosis in human CNE-2 cells assessed as early apoptotic cells at 0.5 uM incubated for 4 days by annexin V-FITC/PI double-staining method (reference value: 8%). The assay is classed as functional. As to conditions: time 4 day.
The test system of assay [14] is CNE-2. The assay is described as follows: Induction of apoptosis in human CNE-2 cells assessed as dead cells at 0.5 uM incubated for 4 days by annexin V-FITC/PI double-staining method (reference value: 0%). The assay is classed as functional. The following applies: time 4 day.
Assay [15] has as its system CNE-2. The assay is described as follows: Induction of apoptosis in human CNE-2 cells assessed as live cells at 1 uM incubated for 4 days by annexin V-FITC/PI double-staining method (reference value: 91.9%). Type of assay: functional. As to conditions: time 4 day.

Chain of Telomerase reverse transcriptase (O14746 whole entry): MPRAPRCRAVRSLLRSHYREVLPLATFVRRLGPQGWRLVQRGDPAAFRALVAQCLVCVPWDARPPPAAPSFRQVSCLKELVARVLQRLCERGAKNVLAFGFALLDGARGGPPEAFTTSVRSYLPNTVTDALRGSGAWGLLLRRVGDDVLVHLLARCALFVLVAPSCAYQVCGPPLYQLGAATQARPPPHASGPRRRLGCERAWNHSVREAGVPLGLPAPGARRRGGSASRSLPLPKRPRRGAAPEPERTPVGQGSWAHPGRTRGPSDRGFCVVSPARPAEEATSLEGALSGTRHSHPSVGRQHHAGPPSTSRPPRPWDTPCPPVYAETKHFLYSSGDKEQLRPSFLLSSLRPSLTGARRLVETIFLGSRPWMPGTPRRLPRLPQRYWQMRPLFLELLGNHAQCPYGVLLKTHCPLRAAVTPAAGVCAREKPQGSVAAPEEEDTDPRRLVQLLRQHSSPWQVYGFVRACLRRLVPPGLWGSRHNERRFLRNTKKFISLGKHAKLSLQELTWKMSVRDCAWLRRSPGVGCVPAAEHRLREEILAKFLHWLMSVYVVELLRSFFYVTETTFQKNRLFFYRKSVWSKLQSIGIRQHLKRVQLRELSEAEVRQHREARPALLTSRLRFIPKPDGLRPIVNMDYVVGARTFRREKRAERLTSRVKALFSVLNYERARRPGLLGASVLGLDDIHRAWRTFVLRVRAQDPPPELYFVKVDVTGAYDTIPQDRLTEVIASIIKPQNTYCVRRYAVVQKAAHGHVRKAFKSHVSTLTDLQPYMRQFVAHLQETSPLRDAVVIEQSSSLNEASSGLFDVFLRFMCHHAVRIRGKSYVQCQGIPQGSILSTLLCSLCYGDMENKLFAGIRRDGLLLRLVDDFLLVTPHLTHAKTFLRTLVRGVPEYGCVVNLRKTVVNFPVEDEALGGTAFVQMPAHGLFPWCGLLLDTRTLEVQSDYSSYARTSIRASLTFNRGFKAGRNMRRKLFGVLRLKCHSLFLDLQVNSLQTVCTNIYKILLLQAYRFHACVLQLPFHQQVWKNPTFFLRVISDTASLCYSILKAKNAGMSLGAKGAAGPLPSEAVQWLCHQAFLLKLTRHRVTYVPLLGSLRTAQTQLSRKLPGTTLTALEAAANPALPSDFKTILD

On to `COC(=O)c1ccc(S(=O)(=O)Oc2cccc(-c3nc(N)c4c(=O)oc5ccccc5c4n3)c2)s1`, for which the 50% inhibitory concentration (IC50) in [1] is 38.4 µM; in [2] it was 47.5 µM; in [3], above 100 µM.
Consider `COc1ccc(S(=O)(=O)Oc2cccc(-c3nc(N)c4c(=O)oc5ccccc5c4n3)c2)cc1OC`, for which the half-maximal inhibitory concentration (IC50) came to 29.7 µM in assay [1], 17.6 µM in [2], 20.6 µM in assay [3] and 6.32 µM in [4].
In the case of `Nc1nc(-c2cccc(OS(=O)(=O)c3ccc(Cl)s3)c2)nc2c1c(=O)oc1ccccc12`, the IC50 was found to be 20.9 µM in assay [1], 11.2 µM in assay [2] and 14.6 µM in assay [3].
In the case of `Nc1nc(-c2cccc(OS(=O)(=O)c3ccc([N+](=O)[O-])cc3)c2)nc2c1c(=O)oc1ccccc12`, the IC50 stood at 17 µM in assay [1], 3.54 µM in [2], 16.2 µM in [3] and 21.1 µM in assay [4].
For `Nc1nc(-c2cccc(OS(=O)(=O)c3cccs3)c2)nc2c1c(=O)oc1ccccc12`, the IC50 in assay [1] turned out to be 5.62 µM; in assay [2], 10.1 µM; in assay [3], 4.24 µM; in [4], 7.35 µM.
`Nc1nc(-c2cccc(OS(=O)(=O)c3ccc(Br)cc3)c2)nc2c1c(=O)oc1ccccc12`: the results for the concentration for half-maximal inhibition (IC50) in [1], in assay [2] and in assay [3] were 15.8 µM, 18.1 µM and 11.1 µM, respectively.
For the compound `CS(=O)(=O)Oc1cccc(-c2nc(N)c3c(=O)oc4ccccc4c3n2)c1`, the IC50 was above 100 µM in assay [1], above 100 µM in [2], above 100 µM in assay [3] and 58.6 µM in assay [4].
On to `Nc1nc(-c2cccc(OS(=O)(=O)c3ccc(F)cc3)c2)nc2c1c(=O)oc1ccccc12`, for which the IC50 in assay [1] amounted to 11.6 µM; in assay [2], 4.91 µM; in assay [3], 4.23 µM.
For `COc1cccc2c1C(=O)c1c(O)c3c(c(O)c1C2=O)C[C@@](O)(C(=O)CO)C[C@@H]3O[C@H]1C[C@H](N)[C@H](O)[C@H](C)O1` [DOXORUBICIN] the same measures were 3.04 µM, 1.56 µM and 2.12 µM.
For `Nc1nc(-c2cccc(OS(=O)(=O)c3ccc(Br)s3)c2)nc2c1c(=O)oc1ccccc12` the same measures were 36.2 µM, 18.3 µM and 18.6 µM.
`CN(C)c1ccc(S(=O)(=O)Oc2cccc(-c3nc(N)c4c(=O)oc5ccccc5c4n3)c2)cc1`: the IC50 in assay [1] worked out at 3.72 µM; in assay [2], 1.97 µM; in [3], 1.92 µM; in [4], 0.82 µM. Besides, the Activity in [5] was found to be 65%; in assay [6], 0%; in assay [7], 6.7%; in assay [8], 15.4%; in assay [10] it was 39.5%; in assay [12], 0.8 kilobase. In addition, the Activity was 28.2% in [13], 0.1% in assay [14] and 45.2% in assay [15]. Besides, the outcome in assay [9] and in [11] was Active.
With `Nc1nc(-c2cccc(OS(=O)(=O)c3ccc(C(F)(F)F)cc3)c2)nc2c1c(=O)oc1ccccc12`, the results for the IC50 in assay [1], in assay [2] and in assay [3] were 7.35 µM, 4.32 µM and 2.34 µM, respectively.
Regarding `COc1ccc(S(=O)(=O)Oc2cccc(-c3nc(N)c4c(=O)oc5ccccc5c4n3)c2)cc1`, the IC50 in assay [1] came to 18.6 µM; in assay [2], 9.63 µM; in assay [3], 16.6 µM.
With `Nc1nc(-c2cccc(OS(=O)(=O)c3ccccc3)c2)nc2c1c(=O)oc1ccccc12`, the half-inhibitory concentration (IC50) in assay [1] amounted to 6.74 µM; in assay [2], 2.58 µM; in assay [3], 3.44 µM; in assay [4] it was 3.16 µM.

The term IC50 denotes the point on the concentration scale where inhibition reaches its midpoint.
